According to US20070049564A1 (Wyeth, priority 2005, published 2007):
Converted amounts (≈) assume the structure as drawn. Read-outs that look alike come from different tables or passages of the source.

What was measured:
[1] = test system: E. coli #311; test: In vivo activity (oral, iv; ED50) against E. coli in mice; conditions: Escherichia coli
Source text: . […] Smith and E. Coli #311 in mammals.
Results of the tests (MIC, oral and IV) are list in Table 7.

[2] = test system: S. cholerasius GC 1355; test: MIC, broth microdilution
[3] = test system: Salmonella spp. GC 235; test: MIC, broth microdilution; conditions: Salmonella
[4] = test system: Salmonella spp. GC 566; test: MIC, broth microdilution; conditions: Salmonella
Procedure: Antimicrobial susceptibility testing. The in vitro activities of the antibiotics are determined by the broth microdilution method as recommended by the National Committee for Clinical Laboratory Standards (NCCLS) (1). Mueller-Hinton II broth (MHBII)(BBL Cockeysville, Md.) is the medium employed in the testing procedures. Microtiter plates containing serial dilutions of each antimicrobial agent are inoculated with each organism to yield the appropriate density (10^5 CFU/ml) in a 100 μl final volume. The plates are incubated for 18-22 hours at 35° C. in ambient air.
Presented in Tables I-XIII are representative compounds of Formula I which were evaluated against a panel of 40 selected gram-positive and gram-negative bacteria strains by pre-incubation in water, mouse serum or human serum. Representative compounds were first incubated in mouse serum for an hour prior to the in vitro testing against a panel of selected gram-positive and gram-negative bacteria strains. All compounds were also pre-incubated in water for an hour prior to testing as control. Representative compounds of Formula I were incubated in human serum prior to MIC determination.

[5] = single intravenous dose (SIV), read-out: ED50 E. coli #311 SIV
[6] = single oral dose (SOD), read-out: ED50 E. coli #311 SOD
[7] = S. cholerasius GC 1355, Mouse Serum pre-incubation
[8] = S. cholerasius GC 1355, Water pre-incubation
[9] = SPP.GC235, Salmonella spp. GC 235, Mouse Serum pre-incubation
[10] = SPP.GC235, Salmonella spp. GC 235, Water pre-incubation
[11] = SPP.GC566, Salmonella spp. GC 566, Mouse Serum pre-incubation
[12] = SPP.GC566, Salmonella spp. GC 566, Water pre-incubation

SMILES	ED50 [1, 5] [mg/kg]	ED50 [1, 6] [mg/kg]	MIC [2, 7] [µg/mL]	MIC [2, 8] [µg/mL]	MIC [3, 9] [µg/mL]	MIC [3, 10] [µg/mL]	MIC [4, 11] [µg/mL]	MIC [4, 12] [µg/mL]	other results
CC(C)COC(=O)N(CC(=O)Nc1cc(N(C)C)c2c(c1O)C(=O)C1=C(O)[C@]3(O)C(=O)C(C(N)=O)=C(O)[C@@H](N(C)C)[C@@H]3C[C@@H]1C2)C(C)(C)C [Example 59, isobutyl 2-{[(5aR,6aS,7S,10aS)-9-(aminocarbonyl)-4,7-bis(dimethylamino)-1,8,10a,11-tetrahydroxy-10,12-dioxo-5,5a,6,6a,7,10,10a,12-octahydrotetracen-2-yl]amino}-2-oxoethyl(tert-butyl)carbamate]	> 8	> 32							
CCCN(CC(=O)Nc1cc(N(C)C)c2c(c1O)C(=O)C1=C(O)[C@]3(O)C(=O)C(C(N)=O)=C(O)[C@@H](N(C)C)[C@@H]3C[C@@H]1C2)C(=O)OCOC(=O)Cc1ccccc1 [Example 11, ({[(2-{[(5aR,6aS,7S,10aS)-9-(aminocarbonyl)-4,7-bis(dimethylamino)-1,8,10a,11′-tetrahydroxy-10,12-dioxo-5,5a,6,6a,7,10,10a,12-octahydrotetracen-2-yl]amino}-2-oxoethyl)(propyl)amino]carbonyl}oxy)methyl phenylacetate]			32 (≈ 41.9 µM)	> 64	0.5 (≈ 0.655 µM)	64 (≈ 83.8 µM)	2 (≈ 2.62 µM)	> 64	
CCCCN(CC(=O)Nc1cc(N(C)C)c2c(c1O)C(=O)C1=C(O)[C@]3(O)C(=O)C(C(N)=O)=C(O)[C@@H](N(C)C)C3CC1C2)C(=O)OCOC(=O)c1ccc(OC)cc1 (stereo partly drawn) [Example 2, ({[(2-{[(7S,10aS)-9-(aminocarbonyl)-4,7-bis(dimethylamino)-1,8,10a,11-tetrahydroxy-10,12-dioxo-5,5a,6,6a,7,10,10a,12-octahydrotetracen-2-yl]amino}-2-oxoethyl)(butyl)amino]carbonyl}oxy)methyl 4-methoxybenzoate]			> 64	> 64	8 (≈ 10.1 µM)	> 64	8 (≈ 10.1 µM)	> 64	
CCCN(CC(=O)Nc1cc(N(C)C)c2c(c1O)C(=O)C1=C(O)[C@]3(O)C(=O)C(C(N)=O)=C(O)[C@@H](N(C)C)[C@@H]3C[C@@H]1C2)C(=O)OCOC(=O)C(C)(C)C [Example 9, ({[(2-{[(5aR,6aS,7S,10aS)-9-(aminocarbonyl)-4,7-bis(dimethylamino)-1,8,10a,11-tetrahydroxy-10,12-dioxo-5,5a,6,6a,7,10,10a,12-octahydrotetracen-2-yl]amino}-2-oxoethyl)(propyl)amino]carbonyl}oxy)methyl pivalate]			64 (≈ 87.7 µM)	> 64	1 (≈ 1.37 µM)	8 (≈ 11 µM)	2 (≈ 2.74 µM)	64 (≈ 87.7 µM)	
CCCN(CC(=O)Nc1cc(N(C)C)c2c(c1O)C(=O)C1=C(O)[C@]3(O)C(=O)C(C(N)=O)=C(O)[C@@H](N(C)C)[C@@H]3C[C@@H]1C2)C(=O)OCC [Example 15, ethyl 2-{[(5aR,6aS,7S,10aS)-9-(aminocarbonyl)-4,7-bis(dimethylamino)-1,8,10a,11-tetrahydroxy-10,12-dioxo-5,5a,6,6a,7,10,10a,12-octahydrotetracen-2-yl]amino}-2-oxoethyl(propyl)carbamate]			> 64	> 64	> 64	> 64	> 64	> 64	
COC(=O)N(CC(=O)Nc1cc(N(C)C)c2c(c1O)C(=O)C1=C(O)[C@]3(O)C(=O)C(C(N)=O)=C(O)[C@@H](N(C)C)[C@@H]3C[C@@H]1C2)C(C)(C)C [Example 60, methyl 2-{[(5aR,6aS,7S,10aS)-9-(aminocarbonyl)-4,7-bis(dimethylamino)-1,8,10a,11-tetrahydroxy-10,12-dioxo-5,5a,6,6a,7,10,10a,12-octahydrotetracen-2-yl]amino}-2-oxoethyl(tert-butyl)carbamate]	> 8	> 32							
CCCN(CC(=O)Nc1cc(N(C)C)c2c(c1O)C(=O)C1=C(O)[C@]3(O)C(=O)C(C(N)=O)=C(O)[C@@H](N(C)C)[C@@H]3C[C@@H]1C2)C(=O)OCOC(=O)C1CCC1 [Example 7, ({[(2-{[(5aR,6aS,7S,10aS)-9-(aminocarbonyl)-4,7-bis(dimethylamino)-1,8,10a,11-tetrahydroxy-10,12-dioxo-5,5a,6,6a,7,10,10a,12-octahydrotetracen-2-yl]amino}-2-oxoethyl)(propyl)amino]carbonyl}oxy)methyl cyclobutanecarboxylate]			16 (≈ 22 µM)	> 64	2 (≈ 2.75 µM)	8 (≈ 11 µM)	1 (≈ 1.37 µM)	16 (≈ 22 µM)	
CCCN(CC(=O)Nc1cc(N(C)C)c2c(c1O)C(=O)C1=C(O)[C@]3(O)C(=O)C(C(N)=O)=C(O)C(N(C)C)C3CC1C2)C(=O)OCc1oc(=O)oc1-c1ccccc1 (stereo in doubt) [Example 110, (2-oxo-5-phenyl-1,3-dioxol-4-yl)methyl 2-{[(7R,10aS)-9-(aminocarbonyl)-4,7-bis(dimethylamino)-1,8,10a,11-tetrahydroxy-10,12-dioxo-5,5a,6,6a,7,10,10a,12-octahydrotetracen-2-yl]amino}-2-oxoethyl(propyl)carbamate]									MIC ([2]; pre-incubation in mouse serum): > 64 µg/mL; MIC ([2]; pre-incubation in water): > 64 µg/mL; MIC ([3]; SPP.GC235, pre-incubation in mouse serum): 4 µg/mL (≈ 5.06 µM); MIC ([3]; SPP.GC235, pre-incubation in water): 8 µg/mL (≈ 10.1 µM); MIC ([4]; SPP.GC566, pre-incubation in mouse serum): 16 µg/mL (≈ 20.3 µM); MIC ([4]; SPP.GC566, pre-incubation in water): 32 µg/mL (≈ 40.5 µM)
CN(C)c1cc(NC(=O)CN(C(=O)OCOC(=O)C2CCCC2)C(C)(C)C)c(O)c2c1C[C@H]1C[C@H]3[C@H](N(C)C)C(O)=C(C(N)=O)C(=O)[C@@]3(O)C(O)=C1C2=O [Example 46, ({[(2-{[(5aR,6aS,7S,10aS)-9-(aminocarbonyl)-4,7-bis(dimethylamino)-1,8,10a,11-tetrahydroxy-10,12-dioxo-5,5a,6,6a,7,10,10a,12-octahydrotetracen-2-yl]amino}-2-oxoethyl)(tert-butyl)amino]carbonyl}oxy)methyl cyclopentanecarboxylate]	2.16	29.2							
CN(C)c1cc(NC(=O)CN(C(=O)OCOC(=O)c2ccc(C(C)(C)C)cc2)C(C)(C)C)c(O)c2c1C[C@H]1C[C@H]3[C@H](N(C)C)C(O)=C(C(N)=O)C(=O)[C@@]3(O)C(O)=C1C2=O [Example 43, ({[(2-{[(5aR,6aS,7S,10aS)-9-(aminocarbonyl)-4,7-bis(dimethylamino)-1,8,10a,11-tetrahydroxy-10,12-dioxo-5,5a,6,6a,7,10,10a,12-octahydrotetracen-2-yl]amino}-2-oxoethyl)(tert-butyl)amino]carbonyl}oxy)methyl 4-tert-butylbenzoate]	3.6	60.4							
CCCCOC(=O)N(CC(=O)Nc1cc(N(C)C)c2c(c1O)C(=O)C1=C(O)[C@]3(O)C(=O)C(C(N)=O)=C(O)[C@@H](N(C)C)[C@@H]3C[C@@H]1C2)C(C)(C)C [Example 58, butyl 2-{[(5aR,6aS,7S,10aS)-9-(aminocarbonyl)-4,7-bis(dimethylamino)-1,8,10a,11-tetrahydroxy-10,12-dioxo-5,5a,6,6a,7,10,10a,12-octahydrotetracen-2-yl]amino}-2-oxoethyl(tert-butyl)carbamate]	> 8	> 32							
